The values that follow are results of earlier work, collected in patent US20040048919A1, “Compositions and methods for reduction of inflammatory symptoms and/or biomarkers in female subjects” (priority 2002, published 2004).

For this series the following is noted: 3.6 gm DHA per day (50x average dietary intake).

For the compound `CC/C=C\C/C=C\C/C=C\C/C=C\C/C=C\C/C=C\CCC(=O)O` [DHA, all-cis 4,7, 10, 13, 16, 19-docosahexaenoic acid], the “toxicities on ingestion by humans” value is reported as “no apparent toxicities”.
